Experimental data taken from patent US6255327A, “Diphenyl-substituted heterocycles, processes for preparing them and their use as pharmaceutical compositions” (Boehringer Ingelheim Pharma KG, priority 1998, dated 2001).

Key:
[1] = system: AMPA receptor; experiment: Inhibition of the cainate-induced signal at the AMPA receptor, electrophysiology on neuronal cells (patch-clamp method); assay type: cell-based; details: test concentration of 100 μM
Method: The testing was carried out at a test concentration of 100 μM.

[2] = molecular target: "Na^+ channel site 2" binding site; experiment: Affinity to the "Na^+ channel site 2" binding site; details: typically at a test concentration of 10 μM
Method: The testing was typically carried out at a test concentration of 10 μM.

[3] = system: neurones in mouse brains; details: after systemic administration; cited from earlier work

Ki [2] | Structure (SMILES) | AMPA Inh. [%] (inhibition of the cainate-induced signal at the AMPA receptor) [1] | destruction of neurones in mouse brains (in words) [3]
 | c1ccc(-c2ncn(-c3ccccc3)n2)cc1 [Example 1, 1,3-Diphenyl-1,2,4-triazole] | 56% | 
 | COc1ccccc1-n1cnc(-c2ccccc2)n1 [Example 2, 1-(2-methoxyphenyl)-3-phenyl-1,2,4-triazole] | 96% | 
3700 nM | CN(C)CCOc1ccccc1-n1cnc(-c2ccccc2)n1 [Example 3, 1-{2-[2(N,N-Dimethylamino)ethyl]oxy-phenyl}-3-phenyl-1,2,4-triazole] | 74% | 
700 nM | CN(C)CCOc1ccccc1-c1ncn(-c2ccccc2)n1 [Example 5, 3-{2-[2(N,N-Dimethylamino)ethyl]oxy-phenyl}-1-phenyl-1,2,4-triazole] | 76% | 
1200 nM | CN(C)CCOc1ccccc1-c1n[nH]c(-c2ccccc2)n1 [Example 7, 3-{2-[2(N,N-Dimethylamino)ethyl]oxy-phenyl}-5-phenyl-1,2,4-triazole] | 39% | 
4600 nM | CN(C)CCOc1ccccc1-c1coc(-c2ccccc2)n1 [Example 8, 4-{2-[2(N,N-dimethylamino)ethyl]oxy-phenyl}-2-phenyl-1,3-oxazole] | 77% | 
1800 nM | CN(C)CCOc1ccccc1-c1c[nH]c(-c2ccccc2)n1 [Example 9, 4-{2-[2(N,N-dimethylamino)ethyl]oxy-phenyl}-2-phenyl-imidazole] |  | 
990 nM | CN(C)CCOc1ccccc1-c1cnc(-c2ccccc2)o1 [Example 10, 5-{2-[2(N,N-dimethylamino)ethyl]oxy-phenyl}-2-phenyl-1,3-oxazole] | 98% | 
990 nM | CN(C)CCOc1ccccc1-c1nn(-c2ccccc2)c(=O)o1 [Example 12, 5-{2-[2(N,N-dimethylamino)ethyl]oxy-phenyl}-3-phenyl-1,3,4-oxadiazol-2-one] |  | 
1100 nM | COc1ccccc1-c1c[nH]c(-c2ccccc2)c1 [Example 13, 3-(2-methoxyphenyl)-5-phenyl-1H-pyrrole] |  | 
390 nM | COc1ccccc1-c1cnn(-c2ccccc2)c1 [Example 17, 4-(2-methoxyphenyl)-1-phenyl-pyrazole] | 53% | 
550 nM | CN(C)CCOc1ccccc1N1C(=O)NC(c2ccccc2)C1=O (stereo not shown) [Example 19, 3-{2-[2(N,N-dimethylamino)ethyl]oxy-phenyl}-5-phenyl-imidazolidin-2,4-dione] |  | 
360 nM | CN(C)CCOc1ccccc1-n1cc(-c2ccccc2)[nH]c1=O [Example 20, 1-{2-[2(N,N-dimethylamino)ethyl]oxy-phenyl}-4-phenyl-1,3-dihydro-imidazole-2-one] |  | 
710 nM | CN(C)CCOc1ccccc1C1NC(=O)N(c2ccccc2)C1=O (stereo not shown) [Example 21, 5-{2-[2(N,N-dimethylamino)ethyl]oxy-phenyl}-3-phenyl-imidazolidin-2,4-dione] |  | 
1300 nM | CN(C)CCOc1ccccc1-c1cn(-c2ccccc2)c(=O)[nH]1 [Example 22, 4-{2-[2(N,N-dimethylamino)ethyl]oxy-phenyl}-1-phenyl-1,3-dihydro-imidazol-2-one] |  | 
1400 nM | CN(C)CCOc1ccccc1-c1nc(-c2ccccc2)nn1C [Example 23, 5-{2-[2(N,N-dimethylamino)-ethyl]oxy-phenyl}-1-methyl-3-phenyl-1,2,4-triazole] |  | 
460 nM | CN(C)CCOc1ccccc1-c1ccc(-c2ccccc2)[nH]1 [Example 24, 2-{2-[2(N,N-dimethylamino)-ethyl]oxy-phenyl}-5-phenyl-pyrrole] |  | 
1300 nM | CN(C)CCOc1ccccc1-c1nc(-c2ccccc2)c[nH]1 [Example 25, 2-{2-[2(N,N-dimethylamino)-ethyl]-oxy-phenyl}-4-phenyl-imidazole] |  | 
 | N[C@@H](CCC(=O)O)C(=O)O [glutamate] |  | neurones are destroyed in mouse brains
